From patent publication US7745645B2, “Sulfonamide derivatives of xanthene compounds” (Pierce Biotechnology, Inc., priority 2007, dated 2010) come the findings set out here.

The structures appear in SMILES notation.

For this assay, the system named is A549 cells. The experiment in a line: High Content Screening measurement of p53 induction. The class given is cell-based. As to conditions: 5 μM camptothecin, 18-20 hours. The procedure:
Any of the above described compounds are conjugated to antibodies and used for HCS measurement of p53 induction. A549 cells are seeded at 5,000 cells/well on 96 well microplates one day before treating them with different concentrations of camptothecin. In the presence of the drug, cells are incubated for 18-20 hours at 37° C., 5% CO2 in a humidified incubator. Cells are then fixed with 4% paraformaldehyde, permeabilized with 0.1% Triton X-100, and then labeled with rabbit p53 primary antibody and goat-anti-rabbit-conjugate of one of the above-described compounds. Cell nuclei are labeled with Hoechst 33342. The samples are imaged and quantitatively analyzed on an ArrayScan® HCS Reader (Cellomics, Inc. Pittsburgh Pa.). […] Camptothecin treated cells show bright p53 labeling in the nuclei.

Take `CC[C@@]1(O)C(=O)OCc2c1cc1n(c2=O)Cc2cc3ccccc3nc2-1` [camptothecin]: the “p53 induction (fluorescence images)” value was “p53 induction in the nucleus”.
